Three compounds from EP0572365A2, “Heteroprostanoids, process for their production and therapeutical use thereof” (NUOVO CONSORZIO SANITARIO NAZIONALE del Dott. Paolo Malizia …, priority 1992, dated 1993) can be followed below.

SMILES strings stand for the structures.

The data set is described as follows: Stability assay: storage of buffered water solutions, residual activity measured in the thrombocyte aggregation assay. In kind it is physicochemical. Conditions: room temperature, water solution buffered at pH 7. The text has this:
The stability of some compounds according to the present invention has been compared with that of a natural prostaglandine through storage at room temperature of water solutions buffered at pH 7, by measuring the residual activity in the assay of thrombocyte aggregation at different times; the results, listed in Table III, show a much greater stability: […]

Consider `CCCCCNC(=O)CN1CCC[C@H]1C(=O)OCCCCC(=O)O` [III (X₂=R₂=R₆=CH₂, R₄=CO, R=H, n=4, m=3), L-7-14-dioxo-12,15-diaza-6-oxa-prostanoic acid], for which the “residual activity in the assay of thrombocyte aggregation” value is recorded as 7 gg: 4 (7 gg), 1h: 98 (1h), 12h: 78 (12h) and 24h: 62 (24h).
With `CCCCC(=O)NCC(=O)N1CCC[C@H]1C(=O)OCCCCC(=O)O` [III (X₂R₄=CH₂, R₂=R₆=CO, R=H, n=4, m=3), L-7,13,16-trioxo-12,15-diaza-6-oxa-prostanoic], the “residual activity in the assay of thrombocyte aggregation” value is listed as 7 gg: 15 (7 gg), 1h: 100 (1h), 12h: 92 (12h) and 24h: 80 (24h).
For `CCCCC[C@H](O)/C=C/[C@H]1[C@H](O)CC(=O)[C@@H]1CCCCCCC(=O)O` [PGE₁, Alprostadil, reference compound] the same measures were 7 gg: 0, 1h: 30, 12h: 2 and 24h: 0.
